# Measured values published in patent publication US11192865B2, “Benzosulfonyl compounds” (Vivace Therapeutics, Inc., priority 2017, dated 2021).
# Test system: 8XTBD luciferase reporter
# Assay: YAP Reporter Assay
# Assay type: cell-based
# Conditions: Homo sapiens, HEK-293T; HEK293T cells stably transfected with 8XTBD luciferase reporter and pRLTK; 24-hr incubation; starting from 3 μM, 1:3 dilution, 10 points; read-out: Firefly Luciferase IC50
# Outline: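 HEK293T cells stably carrying the 8XTBD firefly luciferase reporter and TK-renilla control received compounds at a 10-point, 1:3 series from 3 μM (final) in quadruplicate. After 24 h at 37° C, Dual-Glo luminescence was read. IC50 and maximal inhibition were reported separately for firefly and renilla signals.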
row,SMILES,IC50
1,"CNS(=O)(=O)c1ccc(NC2CCCCC2)c(-c2nnn(C3CCN(C(=O)OC(C)C)CC3)n2)c1 [Compound 47, isopropyl 4-(5-(2-(cyclohexylamino)-5-(N-methylsulfamoyl)phenyl)-2H-tetrazol-2-yl)piperidine-1-carboxylate]",> 3000 nM
2,"CNS(=O)(=O)c1ccc(NC2CCCCC2)c(-c2nc(C)no2)c1 [Compound 91, 4-(cyclohexylamino)-N-methyl-3-(3-methyl-1,2,4-oxadiazol-5-yl)benzenesulfonamide]",100 to 1000 nM
3,"CNS(=O)(=O)c1ccc(Nc2ccccc2)c(-c2nnn(C)n2)c1 [Compound 90, N-methyl-3-(2-methyl-2H-tetrazol-5-yl)-4-(phenylamino)benzenesulfonamide]",≤ 100 nM
4,"CNS(=O)(=O)c1ccc(N[C@H]2CC[C@H](C(F)(F)F)CC2)c(-c2cn(C)cn2)c1 [Compound 151, N-methyl-3-(1-methyl-1H-imidazol-4-yl)-4-(((1r,4r)-4-(trifluoromethyl)cyclohexyl)amino) benzenesulfonamide]",≤ 100 nM
5,"CNS(=O)(=O)c1ccc(Nc2ccc(Cl)c(Cl)c2)c(-c2cn(C)cn2)c1 [Compound 140, 4-(3,4-dichloroanilino)-N-methyl-3-(1-methylimidazol-4-yl)benzenesulfonamide]",≤ 100 nM
6,"CNS(=O)(=O)c1ccc(NC2CCCCC2)c(-c2nnn(C3CN(C(C)C)C3)n2)c1 [Compound 52, 4-(cyclohexylamino)-3-(2-(1-isopropylazetidin-3-yl)-2H-tetrazol-5-yl)-N-methylbenzenesulfonamide]",100 to 1000 nM
7,"CC(C)(C)NS(=O)(=O)c1ccc(NC2CCCCC2)c(-c2nnn(CCO)n2)c1 [Compound 2, N-(tert-butyl)-4-(cyclohexylamino)-3-(2-(2-hydroxyethyl)-2H-tetrazol-5-yl)benzenesulfonamide]",> 3000 nM
8,"CNS(=O)(=O)c1ccc(NC2CCCCC2)c(-c2nnn(C3CCN(C(C)=O)C3)n2)c1 (stereo not drawn) [Compound 42, 3-(2-(1-acetylpyrrolidin-3-yl)-2H-tetrazol-5-yl)-4-(cyclohexylamino)-N-methylbenzenesulfonamide]",100 to 1000 nM
9,"Cn1cc(-c2cc(S(C)(=O)=O)ccc2NC2CCCCC2)nn1 [Compound 6, N-cyclohexyl-2-(1-methyl-1H-1,2,3-triazol-4-yl)-4-(methylsulfonyl)aniline]",100 to 1000 nM
10,"CNS(=O)(=O)c1ccc(NC2CCCCC2)c(-c2cc(N(C)C)ccn2)c1 [Compound 87, 4-(cyclohexylamino)-3-(4-(dimethylamino)pyridin-2-yl)-N-methylbenzenesulfonamide]",≤ 100 nM
11,"CNS(=O)(=O)c1ccc(NC2CCCCC2)c(-c2cc(N)ccn2)c1 [Compound 84, 3-(4-aminopyridin-2-yl)-4-(cyclohexylamino)-N-methylbenzenesulfonamide]",100 to 1000 nM
12,"CNS(=O)(=O)c1ccc(NC2CCCCC2)c(-c2nnn(C3CN(c4cccnc4)C3)n2)c1 [Compound 70, 4-(cyclohexylamino)-N-methyl-3-(2-(1-(pyridin-3-yl)azetidin-3-yl)-2H-tetrazol-5-yl)benzenesulfonamide]",100 to 1000 nM
13,"CNS(=O)(=O)c1ccc(NC2CCCC(F)(F)C2)c(-c2nnn(C)n2)c1 (stereo not drawn) [Compound 73, 4-((3,3-difluorocyclohexyl)amino)-N-methyl-3-(2-methyl-2H-tetrazol-5-yl)benzenesulfonamide]",≤ 100 nM
14,"CNS(=O)(=O)c1ccc(NC2CCCCC2)c(-c2nnn(C3CCN(c4cccnc4)CC3)n2)c1 [Compound 33, 4-(cyclohexylamino)-N-methyl-3-(2-(1-(pyridin-3-yl)piperidin-4-yl)-2H-tetrazol-5-yl)benzenesulfonamide]",100 to 1000 nM
15,"CNS(=O)(=O)c1ccc(NC2CCCCC2)c(-c2nnn(Cc3ccc(F)cc3)n2)c1 [Compound 41, 4-(cyclohexylamino)-3-(2-(4-fluorobenzyl)-2H-tetrazol-5-yl)-N-methylbenzenesulfonamide]",100 to 1000 nM
16,"CNS(=O)(=O)c1ccc(NC2CCCCC2)c(-c2ccncc2)c1 [Compound 65, 4-(cyclohexylamino)-N-methyl-3-(pyridin-4-yl)benzenesulfonamide]",> 3000 nM
17,"CNS(=O)(=O)c1ccc(NC2CCCCC2)c(-c2nnn(C3CN(C(C)=O)C3)n2)c1 [Compound 49, 3-(2-(1-acetylazetidin-3-yl)-2H-tetrazol-5-yl)-4-(cyclohexylamino)-N-methylbenzenesulfonamide]",100 to 1000 nM
18,"CNS(=O)(=O)c1ccc(NC2CCCCC2)c(-c2cncnc2)c1 [Compound 55, 4-(cyclohexylamino)-N-methyl-3-(pyrimidin-5-yl)benzenesulfonamide]",> 3000 nM
19,"CNS(=O)(=O)c1ccc(NC2CCCCC2)c(-c2nnn(Cc3ccccc3)n2)c1 [Compound 20, 3-(2-benzyl-2H-tetrazol-5-yl)-4-(cyclohexylamino)-N-methylbenzenesulfonamide]",≤ 100 nM
20,"CNS(=O)(=O)c1ccc(NC2CCCCC2)c(-c2cccc(N)n2)c1 [Compound 76, 3-(6-aminopyridin-2-yl)-4-(cyclohexylamino)-N-methylbenzenesulfonamide]",100 to 1000 nM

row,SMILES,IC50
1,"CNS(=O)(=O)c1ccc(NC2CCCCC2)c(-c2nnn(CCF)n2)c1 [Compound 40, 4-(cyclohexylamino)-3-(2-(2-fluoroethyl)-2H-tetrazol-5-yl)-N-methylbenzenesulfonamide]",≤ 100 nM
2,"CNS(=O)(=O)c1ccc(NC2CCCCC2)c(-c2nnn(C3CNC3)n2)c1 [Compound 54, 3-(2-(azetidin-3-yl)-2H-tetrazol-5-yl)-4-(cyclohexylamino)-N-methylbenzenesulfonamide]",> 3000 nM
3,"CNS(=O)(=O)c1ccc(NC2CCCCC2)c(-c2nnn(C3CCCN(c4ccccc4)C3)n2)c1 (stereo not drawn) [Compound 63, 4-(cyclohexylamino)-N-methyl-3-(2-(1-phenylpiperidin-3-yl)-2H-tetrazol-5-yl)benzenesulfonamide]",> 3000 nM
4,"CNS(=O)(=O)c1ccc(NC2CCCCC2)c(-c2nnn(C3CCN(S(C)(=O)=O)CC3)n2)c1 [Compound 32, 4-(cyclohexylamino)-N-methyl-3-(2-(1-(methylsulfonyl)piperidin-4-yl)-2H-tetrazol-5-yl)benzenesulfonamide]",> 3000 nM
5,"CNS(=O)(=O)c1ccc(Nc2ccc(Cl)cc2)c(-c2cn(C)cn2)c1 [Compound 139, 4-(4-chloroanilino)-N-methyl-3-(1-methylimidazol-4-yl)benzenesulfonamide]",≤ 100 nM
6,"CCn1nnc(-c2cc(S(=O)(=O)NC)ccc2NC2CCCCC2)n1 [Compound 14, 4-(cyclohexylamino)-3-(2-ethyl-2H-tetrazol-5-yl)-N-methylbenzenesulfonamide]",≤ 100 nM
7,"CNS(=O)(=O)c1ccc(Nc2ccc(C(F)(F)F)cc2)c(-c2nnn(CCOCc3ccccc3)n2)c1 [Compound 115, 3-(2-(2-(benzyloxy)ethyl)-2H-tetrazol-5-yl)-N-methyl-4-((4-(trifluoromethyl)phenyl)amino)benzenesulfonamide]",100 to 1000 nM
8,"CNS(=O)(=O)c1ccc(Nc2cccc(-c3ccccc3)c2)c(-c2nnn(C)n2)c1 [Compound 131, N-methyl-3-(2-methyltetrazol-5-yl)-4-(3-phenylanilino) benzenesulfonamide]",≤ 100 nM
9,"CNS(=O)(=O)c1ccc(NC2CCCCC2)c(-c2nnn(Cc3cccnc3)n2)c1 [Compound 29, 4-(cyclohexylamino)-N-methyl-3-(2-(pyridin-3-ylmethyl)-2H-tetrazol-5-yl)benzenesulfonamide]",≤ 100 nM
10,"CNS(=O)(=O)c1ccc(NC2CCCCC2)c(-n2ccnn2)c1 [Compound 89, 4-(cyclohexylamino)-N-methyl-3-(1H-1,2,3-triazol-1-yl)benzenesulfonamide]",> 3000 nM
11,"CNS(=O)(=O)c1ccc(Nc2ccccc2OC(F)(F)F)c(-c2nnnn2C)c1 [Compound 101, N-methyl-3-(1-methyl-1H-tetrazol-5-yl)-4-((2-(trifluoromethoxy)phenyl)amino)benzenesulfonamide]",> 3000 nM
12,"CC(C)(C)NS(=O)(=O)c1ccc(NC2CCCCC2)c(-c2nn[nH]n2)c1 [Compound 1, N-(tert-butyl)-4-(cyclohexylamino)-3-(2H-tetrazol-5-yl)benzenesulfonamide]",> 3000 nM
13,"CNS(=O)(=O)c1ccc(NC2CCCCC2)c(-c2cccnc2)c1 [Compound 77, 4-(cyclohexylamino)-N-methyl-3-(pyridin-3-yl)benzenesulfonamide]",> 3000 nM
14,"CNS(=O)(=O)c1ccc(NC2CCCCC2)c(-c2nnn(-c3ccc(F)cc3)n2)c1 [Compound 16, 4-(cyclohexylamino)-3-(2-(4-fluorophenyl)-2H-tetrazol-5-yl)-N-methylbenzenesulfonamide]",100 to 1000 nM
15,"CNS(=O)(=O)c1ccc(NC2CCCCC2)c(-c2ccn(C)n2)c1 [Compound 57, 4-(cyclohexylamino)-N-methyl-3-(1-methyl-1H-pyrazol-3-yl)benzenesulfonamide]",≤ 100 nM
16,"CNS(=O)(=O)c1ccc(NC2CCCCC2)c(-c2noc(C)n2)c1 [Compound 48, 4-(cyclohexylamino)-N-methyl-3-(5-methyl-1,2,4-oxadiazol-3-yl)benzene sulfonamide]",≤ 100 nM
17,"CNS(=O)(=O)c1ccc(Nc2ccc(C(F)(F)F)cc2)c(-c2nnn(C)n2)c1 [Compound 95, N-methyl-3-(2-methyl-2H-tetrazol-5-yl)-4-((4-(trifluoromethyl)phenyl)amino)benzenesulfonamide]",≤ 100 nM
18,"CNS(=O)(=O)c1ccc(NC2CCCCC2)c(-c2nnn(C3CCN(c4ccccc4)CC3)n2)c1 [Compound 38, 4-(cyclohexylamino)-N-methyl-3-(2-(1-phenylpiperidin-4-yl)-2H-tetrazol-5-yl)benzenesulfonamide]",> 3000 nM
19,"CNS(=O)(=O)c1ccc(Nc2cc(Cl)cc(Cl)c2)c(-c2cn(C)cn2)c1 [Compound 142, 4-(3,5-dichloroanilino)-N-methyl-3-(1-methylimidazol-4-yl)benzenesulfonamide]",≤ 100 nM
